Experiment: Preliminary screens of amino acids
Description: In addition to the amino acid combinations described above, several other combinations are tested that include, e.g., Trp and/or Arg to determine if inclusion of these amino acids confers additional dermatological benefits. […] At the outset, the following combinations of amino acids are tested: Ala, Gln, Gly, Ser (combo #1); Ala, Gln, Gly, Ser, Val, Ile (combo #2); Ala, Gln, Gly, Ser, Val; Ala, Gln, Gly, Ser, Ile; Ala, Gln, Gly, Ser, Ile, Val, Trp; Ala, Gln, Gly, Ser, Ile, Val, Arg; and Ala, Gln, Gly, Ser, Ile, Val, Trp, Arg.

| Structure (SMILES) | effect in preliminary screens |
| --- | --- |
| N[C@@H](Cc1c[nH]c2ccccc12)C(=O)O [Trp, tryptophan] | positive effects |
| N=C(N)NCCC[C@H](N)C(=O)O [Arg, arginine] | positive effects |

— patent publication US20250152647A1, “FORMULATIONS AND METHODS FOR SKIN CARE” (AMILYFE, LLC, priority 2022, published 2025)
